# Where two headings read alike, the source gives them in different places.
# Columns and labels:
# [1] = system: human breast cancer cells (surgical sample); assay: Anticancer agent sensitivity, FDA stain, fluorescence intensity on image; settings: 24 h agent contact; for FDA image fluorescence units: fluorescence intensity on image; for Effect/control (FDA image fluorescence): ratio to control = 1.00
# Method: (§1) The embedded culture was carried out as follows: 1 volume of 10-fold concentrated Ham's F12 culture solution (sodium bicarbonate-free) and 1 volume of a reconstituting buffer solution (50 mM NaOH solution containing 260 mM sodium bicarbonate and 200 mM-HEPES) were added to 8 volumes of Cellmatrix Type I-A (0.3% acid-soluble Type-I collagen solution: product of Nitta Gelatin Inc.); the breast cancer cells and the like as obtained in the above-mentioned preliminary culture and collection steps were added and well mixed into the resultant mixture; the final concentration was adjusted to 5×10^4 cells/ml; and the resultant mixture was kept in ice.
# (§2) Next, this collagen mixture solution was placed onto a 24-well multiplate at 30 μl/well using a micropipette and gelated to prepare globular collagen gels (for details see Example 1G).
# (§3) A 0.5-ml portion of the culture solution containing an anticancer agent was superposed on the globular collagen gel in which the cancer cells were embedded and which was obtained in the above-mentioned embedding step, and the cancer cells were allowed to be in contacted with the anticancer agent by keeping them in a 5% carbon dioxide incubator at 37° C. for 24 hours. The following six anticancer agents were used: MMC (mitomycin C), CDDP (cisplatin), VDS (vindesine), VP-16, 5-FU (5fluorouracil) and ADM (adriamycin).
# (§4) Then, the culture solution containing the anticancer agent was removed by suction, 0.5 ml of a culture solution free from an anticancer agent was instead added, the resultant mixture was shaken in a 5% carbon dioxide incubator, thus washing the globular collagen gel. This procedure was repeated at least every 10 minutes for a total of 3 times, whereby the anticancer agent was removed from the globular collagen gel.
# (§5) After the above-mentioned agent contact step, 0.5 ml of a culture solution was added, and the culture was effected at 37° C. in a 5% carbon dioxide incubator for 7-14 days. The culture solution was exchanged every 1-2 days. The proliferation culture solution as used was a culture solution containing a DF culture solution+10% FBS+5μg/ml insulin (product of Sigma Chemical Co.)+10 ng/ml EGF (EGF: epidermal growth factor, product of Becton Dickinson Labware)+20 ng/ml hydrocortisone (product of Sigma Chemical Co.) (see Example 1H).
# (§6) The culture solution was exchanged with a culture solution, to which an FDA-staining agent (FDA concentration: 2-10 μg/ml) which reacts due to esterase activity in live cells had been added, and was shaken for one hour in a refrigerator (10° C.), thus reacting the FDA with the cells.
# (§7) The fluorescently colored cells were quantified by image analysis. The image for the image analysis was created using, an inverted fluorescent microscope, a sample holder cooling apparatus (in-house product), an excitatory light irradiation control apparatus, a sample holder driving apparatus and a high-sensitivity cooled CCD camera. The volume was measured on the basis of this image using an image analyzer according to a conventional method. The intensity of the excitatory light was 1×10^3 lux.sec on the sample holder.
# (§8) In addition to the conventional known volume measurement by image analysis, the viability of the cells was also measured by quantifying the fluorescence intensity on the image.
# [2] = system: human breast cancer cells (surgical sample); assay: Anticancer agent sensitivity, globular collagen gel-embedded culture, Alamar Blue fluorescence; settings: 24 h agent contact; for AlamarBlue fluorescence intensity: excitation 560 nm, detection 590 nm; for Effect/control (AlamarBlue fluorescence): ratio to control = 1.00
# Method: (§9) Using a surgical sample as obtained from a human breast cancer patient as the starting material, it was treated according to the order as shown in the flow sheet.
# as §1
# (§10) A 0.5-ml portion of the culture solution containing an anticancer agent was superposed on the globular collagen gel in which the cancer cells were embedded and which was obtained in the above-mentioned embedding step, and the cancer cells were allowed to be in contacted with the anticancer agent by keeping them in a 5% carbon dioxide incubator at 37° C. for 24 hours.
# as §4
# (§11) After the above-mentioned agent contact step, 0.5 ml of a culture solution was added, and the culture was effected at 37° C. in a 5% carbon dioxide incubator for 7-14 days. The culture solution was exchanged every 1-2 days.
# (§12) For the measurement, an AB coloring agent was used to cause a color reaction by the reductive activity of the cells.
# (§13) The AB coloring agent was added in an amount of 1/50-1/10 relative to the culture solution, and the reaction was conducted for 6 hours in a carbon dioxide incubator.
# (§14) The same culture solution was also measured using a fluorospectrophotometer, with an excitatory wavelength of 560 nm and a detection wavelength of 590 nm.
# [3] = system: human breast cancer cells (surgical sample); settings: primary breast cancer cells, 24 h
# Method: as §1, §2, §3, §4, §5, §6, §7, §8
# [4] = system: human breast cancer cells (surgical sample); settings: primary breast cancer cells, 24 h; remark: listed apart in the source
# Method: as §9, §1, §3, §4, §11
# (§15) The culture solution for the washing was free from sodium bicarbonate and cooled to 4° C. before use.
# (§16) The culture container was then transferred to a cooled dark box. The culture solution was exchanged with a culture solution, to which an FDA-staining agent (FDA concentration: 2-10 μg/ml) which reacts due to esterase activity in live cells had been added, and was shaken for one hour in a refrigerator (10° C.), thus reacting the FDA with the cells.
# as §7
# [5] = system: human breast cancer cells (surgical sample); settings: primary breast cancer cells, 24 h; remark: listed apart in the source
# Method: as §9, §1, §10, §4, §11, §12, §13, §14
# [6] = system: human breast cancer cells (surgical sample); assay: Anticancer agent sensitivity, FDA stain, volume by image analysis; settings: 24 h agent contact; for FDA volume: image analysis; for Effect/control (FDA volume): ratio to control = 1.00
# Method: as §9, §1, §3, §4, §11, §15, §16, §7
# [7] = system: breast cancer cells (surgical sample from a human cancer patient); assay: Anticancer agent sensitivity, MTT assay method, formazane absorbance; format: cell-based; settings: for Effect/control (formazane absorbance): control = 1.00
# Method: A test was conducted in the same way as in Example 1, but an MTT reagent was substituted for the AB coloring agent in the colorimetric analysis step. A surgical sample (breast cancer) as obtained from a human cancer patient was used as the starting material, and the test was carried out according to the same procedures and methods as in Example 1, except for the procedures subsequent to the colorimetric analysis step. The formazane as deposited in live cells was extracted by dissolving the collagen gel with collagenase in the culture container and then adding a formazane extractant, and the absorbance of the resultant extract was measured, when the deposited fine crystal of formazane was held in the collagen gel, such that results were obtained with good accuracy.
# [8] = system: human breast cancer cells (surgical sample); assay: Anticancer agent sensitivity, Neutral Red stain, volume by image analysis; settings: 24 h agent contact; for Neutral Red volume: image analysis of fixed, dried gel; for Effect/control (Neutral Red volume): ratio to control = 1.00
# Method: as §9, §1, §2, §3, §4, §5
# (§17) The culture solution for the washing was a DME culture solution.
# (§18) The culture solution was exchanged with a culture solution to which an NR-staining agent had been added (NR concentration: 25-50 μg/ml), and shaking was effected for 2 hours in a carbon dioxide incubator, thus incorporating the NR into the cells.
# (§19) After the stain, the culture solution containing the NR was exchanged with PBS (Phosphate Buffered Saline), and the sample was allowed to stand stationary in a room for 10 minutes, thus removing the NR remaining outside of the cells.
# (§20) Next, the PBS was exchanged with neutral 10% formalin, and the sample was allowed to stand stationary in a room for 40 minutes, thus fixing the cells and the NR as incorporated into the cells.
# (§21) The globular collagen gel to which the cells had been fixed was immersed in distilled water for 10 minutes, thus removing the salts. When the globular collagen gel which had been immersed in the distilled water was air-dried at room temperature, whereby a flat dried product was formed.
# (§22) At this time, the cultured cells were fixed in the dried collagen gel while containing the NR.
# (§23) The volume of the fixed cells was measured using an image analyzer in the same manner as mentioned above.
# [9] = system: breast cancer cells (surgical sample from a human cancer patient); assay: Anticancer agent sensitivity, NR extraction method, absorbance; format: cell-based; settings: for Effect/control (Neutral Red absorbance): control = 1.00
# Method: A test was conducted in the same way as in Example 1, but the image analysis of live cells as stained with the NR was not carried out, and the NR was instead extracted from the live cells, thus measuring the absorbance. A surgical sample (breast cancer) as obtained from a human cancer patient was used as the starting material, and the test was carried out according to the same procedures and methods as in Example 1, except for the procedures of the formalin-fixation, the drying and the image analysis in the pigment stain analysis step. The NR as incorporated into live cells was extracted by dissolving the collagen gel with collagenase in the culture container and then adding an NR extractant, and the absorbance of the resultant extract was measured.
# [10] = system: human breast cancer cells (surgical sample); assay: Anticancer agent sensitivity, FDA spectrophotofluorimetry of extracted dye; settings: 24 h agent contact; for FDA spectrophotofluorimetry fluorescence units: excitation 490 nm, detection 520 nm; for Effect/control (FDA spectrophotofluorimetry): ratio to control = 1.00
# Method: as §1, §2, §3, §4, §5, §16
# (§24) The cultured cell sample as subjected to the fluorescent stain was washed for one hour with a fresh cooled culture solution, thus removing the extracellular fluorescent reagent. The culture solution as used for the washing was a DME culture solution. This solution was further exchanged with a culture solution of 37° C., shaking was performed for one hour in an incubator at 37° C., and the FDA which had reacted in the cells was extracted into the solution. The culture solution was separated off and measured using a fluorospectrophotometer, with an excitatory wavelength of 490 nm and a detection wavelength of 520 nm.
# [11] = system: human breast cancer cells (surgical sample); assay: Anticancer agent sensitivity, globular collagen gel-embedded culture, Alamar Blue (AB) absorbance; settings: 24 h agent contact, 7-14 days culture; for AlamarBlue absorbance: 570 nm, reference 600 nm; for Effect/control (AlamarBlue absorbance): ratio to control = 1.00
# Method: (§25) The capsule, fat, etc. were removed from the tissue containing the breast cancer using scissors and forceps under aseptic conditions, and then sliced with a razor.
# (§26) The live tumor cells as obtained by the above-mentioned preliminary culture and collection steps were embedded into a globular collagen gel and cultured.
# as §1, §3, §4, §11
# (§27) The viability of the cells in the sample as obtained by the culture was measured.
# as §12, §13
# (§28) After the reaction, the culture solution was separated off, and the absorbance of the culture solution was measured using a spectrophotometer. The measurement of the absorbance was performed at 570 nm with a reference wavelength of 600 nm.
# [12] = system: human breast cancer cells (surgical sample); settings: primary breast cancer cells, 24 h; remark: listed apart in the source
# Method: as §1, §2, §3, §4, §5, §16, §24
# [13] = system: human breast cancer cells (surgical sample); settings: primary breast cancer cells, 24 h; remark: listed apart in the source
# Method: as §25, §26, §1, §3, §4, §11, §27, §12, §13, §28
# [14] = system: human breast cancer cells (surgical sample); settings: primary breast cancer cells, 24 h; remark: listed apart in the source
# Method: as §9, §1, §2, §3, §4, §5, §17, §18, §19, §20, §21, §22, §23
# [15] = system: rabbit-oriented vascular endothelial cells; assay: Proliferation shape of vascular endothelial cells around globular collagen gel containing TGF-β; format: cell-based
# Description: The procedure of Example 23 was repealed, but TGF-β (a transformation growth factor) was substituted for the cells of the group A, and rabbit-oriented vascular endothelial cells for the cells of the group B, and the following modifications were made. […] In FIG. 7, the transformation growth factor 70 is contained in the globular collagen gel 20a. A collagen gel 80a in which the rabbit-oriented vascular endothelial cells 50d were embedded was placed in the layered form into the inside of the multiplate 10, such that the globular collagen gel 20a was covered with the collagen gel 80a. The test was carried out in the same way as in Example 22 except for the components as contained in each collagen gel and for the placement of the gels. In addition, the collagen gel 80a was evaluated by microscopy.
# As a result, different proliferation shapes of the vascular endothelial cells were observed depending on the distance from the surface of the globular collagen gel 20a.
# [16] = system: fibroblasts in human lung cancer and human breast cancer samples; assay: Fibroblast proliferation in preliminary culture, microscopic observation; format: cell-based; settings: 10 μg/ml dextran sulfate in serum culture solution, 7 days
# Method: Thus, an investigation was made with regard to a serum-free culture solution (DF culture solution+5 μg/ml insulin+10 ng/ml EGF+8 ng/ml sodium selenite+10 μg/ml transferrin+5 mg/ml BSA) (BSA: bovine serum albumin) and a serum culture solution containing dextran sulfate (DF culture solution+10% FBS+insulin+EGF+hydrocortisone 10 μg/ml dextran sulfate).
# The experimental materials used were the 14 cases of human lung cancer and 12 cases of human breast cancer which had adhered to the bottom of the culture dishes in Example 1A above as controls, and the above-mentioned culture solutions (the serum-free culture solution and the dextran sulfate-containing serum culture solution) were used to culture cells for 7 days.
# [17] = 5-FU concentration 0.1 (Cmax = 1)
# [18] = 5-FU concentration 0.2 (Cmax = 1)
# [19] = 5-FU concentration 0.4 (Cmax = 1)
# [20] = 5-FU concentration 0.6 (Cmax = 1)
# [21] = 5-FU concentration 0.8 (Cmax = 1)
# [22] = 5-FU concentration 1.0 (Cmax = 1)
compound,measurement,setting,value
"O=c1[nH]cc(F)c(=O)[nH]1 [5-FU, 5fluorouracil]",FDA image fluorescence units,[1],4.77 10^1
same,AlamarBlue fluorescence intensity,[2],5.07 10^2
same,Effect/control (FDA image fluorescence),[3],0.62
same,Effect/control (FDA volume),[4],0.65
same,Effect/control (AlamarBlue fluorescence),[5],0.71
same,FDA volume,[6],9.89 10^7 μm^3
same,Formazane absorbance,[7]; [17],1.036
same,Effect/control (formazane absorbance),[7]; [17],0.88
same,Formazane absorbance,[7]; [18],0.774
same,Effect/control (formazane absorbance),[7]; [18],0.66
same,Formazane absorbance,[7]; [19],0.599
same,Effect/control (formazane absorbance),[7]; [19],0.51
same,Formazane absorbance,[7]; [20],0.515
same,Effect/control (formazane absorbance),[7]; [20],0.44
same,Formazane absorbance,[7]; [21],0.450
same,Effect/control (formazane absorbance),[7]; [21],0.38
same,Formazane absorbance,[7]; [22],0.429
same,Effect/control (formazane absorbance),[7]; [22],0.37
same,Neutral Red volume,[8],10.76 10^7 μm^3
same,Neutral Red absorbance,[9]; [17],0.307
same,Effect/control (Neutral Red absorbance),[9]; [17],0.88
same,Neutral Red absorbance,[9]; [18],0.206
same,Effect/control (Neutral Red absorbance),[9]; [18],0.59
same,Neutral Red absorbance,[9]; [19],0.123
same,Effect/control (Neutral Red absorbance),[9]; [19],0.35
same,Neutral Red absorbance,[9]; [20],0.100
same,Effect/control (Neutral Red absorbance),[9]; [20],0.29
same,Neutral Red absorbance,[9]; [21],0.079
same,Effect/control (Neutral Red absorbance),[9]; [21],0.23
same,Neutral Red absorbance,[9]; [22],0.072
same,Effect/control (Neutral Red absorbance),[9]; [22],0.21
same,FDA spectrophotofluorimetry fluorescence units,[10],4.68 10^1
same,AlamarBlue absorbance,[11],0.69
same,Effect/control (FDA spectrophotofluorimetry),[12],0.63
same,Effect/control (AlamarBlue absorbance),[13],0.73
same,Effect/control (Neutral Red volume),[14],0.64
"COc1cccc2c1C(=O)c1c(O)c3c(c(O)c1C2=O)C[C@@](O)(C(=O)CO)C[C@@H]3O[C@H]1C[C@H](N)[C@H](O)[C@H](C)O1 [ADM, adriamycin]",FDA image fluorescence units,[1],5.35 10^1
same,Effect/control (FDA image fluorescence),[1],0.70
same,AlamarBlue fluorescence intensity,[2],4.81 10^2
same,Effect/control (AlamarBlue fluorescence),[2],0.68
same,FDA volume,[6],10.93 10^7 μm^3
same,Effect/control (FDA volume),[6],0.72
same,Neutral Red volume,[8],12.26 10^7 μm^3
same,Effect/control (Neutral Red volume),[8],0.73
same,FDA spectrophotofluorimetry fluorescence units,[10],5.33 10^1
same,Effect/control (FDA spectrophotofluorimetry),[10],0.72
same,AlamarBlue absorbance,[11],0.65
same,Effect/control (AlamarBlue absorbance),[11],0.68
"[NH2][Pt]([NH2])([Cl])[Cl] [CDDP, cisplatin]",FDA image fluorescence units,[1],3.43 10^1
same,Effect/control (FDA image fluorescence),[1],0.45
same,AlamarBlue fluorescence intensity,[2],2.66 10^2
same,Effect/control (AlamarBlue fluorescence),[2],0.38
same,FDA volume,[6],5.68 10^7 μm^3
same,Effect/control (FDA volume),[6],0.37
same,Neutral Red volume,[8],6.25 10^7 μm^3
same,Effect/control (Neutral Red volume),[8],0.37
same,FDA spectrophotofluorimetry fluorescence units,[10],3.50 10^1
same,Effect/control (FDA spectrophotofluorimetry),[10],0.47
same,AlamarBlue absorbance,[11],0.40
same,Effect/control (AlamarBlue absorbance),[11],0.42
"CO[C@@]12[C@H](COC(N)=O)C3=C(C(=O)C(C)=C(N)C3=O)N1C[C@@H]1N[C@@H]12 [MMC, mitomycin C]",FDA image fluorescence units,[1],3.26 10^1
same,AlamarBlue fluorescence intensity,[2],3.24 10^2
same,Effect/control (FDA image fluorescence),[3],0.42
same,Effect/control (FDA volume),[4],0.33
same,Effect/control (AlamarBlue fluorescence),[5],0.46
same,FDA volume,[6],5.07 10^7 μm^3
same,Neutral Red volume,[8],5.19 10^7 μm^3
same,FDA spectrophotofluorimetry fluorescence units,[10],3.37 10^1
same,AlamarBlue absorbance,[11],0.40
same,Effect/control (FDA spectrophotofluorimetry),[12],0.46
same,Effect/control (AlamarBlue absorbance),[13],0.42
same,Effect/control (Neutral Red volume),[14],0.31
"CC[C@]1(O)C[C@@H]2CN(CCc3c([nH]c4ccccc34)[C@@](C(=O)OC)(c3cc4c(cc3OC)N(C)[C@H]3[C@@](O)(C(N)=O)[C@H](O)[C@]5(CC)C=CCN6CC[C@]43[C@@H]65)C2)C1 [VDS, vindesine]",FDA image fluorescence units,[1],4.74 10^1
same,AlamarBlue fluorescence intensity,[2],5.13 10^2
same,Effect/control (FDA image fluorescence),[3],0.62
same,Effect/control (FDA volume),[4],0.61
same,Effect/control (AlamarBlue fluorescence),[5],0.72
same,FDA volume,[6],9.25 10^7 μm^3
same,Neutral Red volume,[8],10.10 10^7 μm^3
same,FDA spectrophotofluorimetry fluorescence units,[10],4.52 10^1
same,AlamarBlue absorbance,[11],0.69
same,Effect/control (FDA spectrophotofluorimetry),[12],0.61
same,Effect/control (AlamarBlue absorbance),[13],0.73
same,Effect/control (Neutral Red volume),[14],0.60
COc1cc(C2c3cc4c(cc3C(OC3OC5COC(C)OC5C(O)C3O)C3COC(=O)C23)OCO4)cc(OC)c1O (stereo not shown) [VP-16],FDA image fluorescence units,[1],7.23 10^1
same,Effect/control (FDA image fluorescence),[1],0.94
same,AlamarBlue fluorescence intensity,[2],6.64 10^2
same,Effect/control (AlamarBlue fluorescence),[2],0.94
same,Effect/control (FDA volume),[6],0.93
same,Neutral Red volume,[8],15.54 10^7 μm^3
same,Effect/control (Neutral Red volume),[8],0.92
same,FDA spectrophotofluorimetry fluorescence units,[10],6.90 10^1
same,Effect/control (FDA spectrophotofluorimetry),[10],0.93
same,AlamarBlue absorbance,[11],"0,87"
same,Effect/control (AlamarBlue absorbance),[11],0.91
TGF-β,Proliferation state of vascular endothelial cells,[15]; 0 mm from surface of gel 20a,lump
same,Proliferation state of vascular endothelial cells,[15]; 1 mm from surface of gel 20a,tree
same,Proliferation state of vascular endothelial cells,[15]; 3 mm from surface of gel 20a,lump
same,Proliferation state of vascular endothelial cells,[15]; 4 mm from surface of gel 20a,lump
dextran sulfate,proliferation of the fibroblasts,[16],partially suppressed

# Source: patent publication US5712161A, “Method for culturing animal cells in collagen drops on a support” (Nitta Gelatin Inc., priority 1993, dated 1998)
